Results taken from ChEMBL document CHEMBL1131994, “Discovery of subtype-selective NMDA receptor ligands: 4-benzyl-1-piperidinylalkynylpyrroles, pyrazoles and imidazoles as NR1A/2B antagonists” (Bioorg Med Chem Lett, 1999).

Experiments:
[1] = biological target: T1, Glutamate NMDA receptor; Grin1/Grin2b (Rattus norvegicus, UniProt P35439+Q00960); experiment: Inhibition of NMDA response at NR1A/2B receptor expressed in Xenopus oocytes; assay type: cell-based, Oocyte
Target sequence in this assay (Q00960 whole entry, other chains not shown): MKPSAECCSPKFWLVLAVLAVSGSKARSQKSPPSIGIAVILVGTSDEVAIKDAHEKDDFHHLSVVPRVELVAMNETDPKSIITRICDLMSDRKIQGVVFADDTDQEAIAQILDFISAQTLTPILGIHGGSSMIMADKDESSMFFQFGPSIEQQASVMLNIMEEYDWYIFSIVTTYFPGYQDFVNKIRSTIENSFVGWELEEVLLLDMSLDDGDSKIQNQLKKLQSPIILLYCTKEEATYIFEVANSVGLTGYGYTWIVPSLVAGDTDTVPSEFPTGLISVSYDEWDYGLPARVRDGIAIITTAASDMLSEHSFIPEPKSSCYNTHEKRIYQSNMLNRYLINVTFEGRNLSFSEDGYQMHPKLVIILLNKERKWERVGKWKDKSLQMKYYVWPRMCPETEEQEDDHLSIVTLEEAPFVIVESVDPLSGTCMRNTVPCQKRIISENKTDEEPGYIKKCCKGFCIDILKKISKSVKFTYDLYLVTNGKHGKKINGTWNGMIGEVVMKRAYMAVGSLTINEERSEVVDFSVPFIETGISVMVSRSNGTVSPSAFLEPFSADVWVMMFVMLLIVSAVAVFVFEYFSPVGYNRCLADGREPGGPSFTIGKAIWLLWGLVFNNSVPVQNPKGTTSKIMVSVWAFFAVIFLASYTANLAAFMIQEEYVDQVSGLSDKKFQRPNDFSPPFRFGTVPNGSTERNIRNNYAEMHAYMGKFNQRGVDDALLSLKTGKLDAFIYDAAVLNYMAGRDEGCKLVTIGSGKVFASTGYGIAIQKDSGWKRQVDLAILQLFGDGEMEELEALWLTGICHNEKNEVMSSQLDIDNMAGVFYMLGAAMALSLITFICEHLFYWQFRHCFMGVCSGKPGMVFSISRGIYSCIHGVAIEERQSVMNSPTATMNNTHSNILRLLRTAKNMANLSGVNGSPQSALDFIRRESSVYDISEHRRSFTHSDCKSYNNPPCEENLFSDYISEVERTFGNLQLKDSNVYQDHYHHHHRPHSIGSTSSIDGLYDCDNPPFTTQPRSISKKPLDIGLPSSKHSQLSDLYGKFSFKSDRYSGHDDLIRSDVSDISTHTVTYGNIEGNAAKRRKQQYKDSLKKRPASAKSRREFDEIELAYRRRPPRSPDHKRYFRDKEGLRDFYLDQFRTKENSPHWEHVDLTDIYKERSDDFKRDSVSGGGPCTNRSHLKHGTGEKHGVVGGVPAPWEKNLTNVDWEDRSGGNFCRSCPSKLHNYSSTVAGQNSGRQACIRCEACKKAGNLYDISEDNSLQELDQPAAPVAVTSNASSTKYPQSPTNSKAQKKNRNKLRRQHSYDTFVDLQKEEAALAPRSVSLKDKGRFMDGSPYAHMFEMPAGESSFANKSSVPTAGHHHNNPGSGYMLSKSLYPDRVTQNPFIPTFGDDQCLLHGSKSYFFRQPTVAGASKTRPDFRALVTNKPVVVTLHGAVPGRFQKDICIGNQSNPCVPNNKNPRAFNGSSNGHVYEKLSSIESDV

[2] = biological target: T2, Glutamate receptor ionotropic, NMDA 2C (Rattus norvegicus, UniProt P35439+Q00961); experiment: Compound was tested in vitro for inhibition of NMDA response at cloned NR1A/2C receptor expressed in Xenopus oocytes; assay type: cell-based, frog, Oocyte
[3] = biological target: Glutamate NMDA receptor; Grin1/Grin2a (Rattus norvegicus, UniProt P35439+Q00959); experiment: Compound was tested in vitro for inhibition of NMDA response at cloned NR1A/2A receptor expressed in Xenopus oocytes; assay type: cell-based, frog, Oocyte
Rattus norvegicus = experiment: Compound was tested in vivo for potentiation of L-DOPA effect in 6-hydroxydopamine-lesioned rat when administered per orally; assay type: functional; conditions: po, read-out: MED
[4] = biological target: T1, Glutamate NMDA receptor; Grin1/Grin2b; experiment: The compound was tested in vitro for activity against NR1A/2B sub type of NMDA receptor; set-up: species or system frog
[5] = biological target: T2, Glutamate receptor ionotropic, NMDA 2C; experiment: The compound was tested in vitro for activity against NR1A/2C sub type of NMDA receptor; set-up: species or system frog

T2 sequence (Q00961 whole entry, one chain of several): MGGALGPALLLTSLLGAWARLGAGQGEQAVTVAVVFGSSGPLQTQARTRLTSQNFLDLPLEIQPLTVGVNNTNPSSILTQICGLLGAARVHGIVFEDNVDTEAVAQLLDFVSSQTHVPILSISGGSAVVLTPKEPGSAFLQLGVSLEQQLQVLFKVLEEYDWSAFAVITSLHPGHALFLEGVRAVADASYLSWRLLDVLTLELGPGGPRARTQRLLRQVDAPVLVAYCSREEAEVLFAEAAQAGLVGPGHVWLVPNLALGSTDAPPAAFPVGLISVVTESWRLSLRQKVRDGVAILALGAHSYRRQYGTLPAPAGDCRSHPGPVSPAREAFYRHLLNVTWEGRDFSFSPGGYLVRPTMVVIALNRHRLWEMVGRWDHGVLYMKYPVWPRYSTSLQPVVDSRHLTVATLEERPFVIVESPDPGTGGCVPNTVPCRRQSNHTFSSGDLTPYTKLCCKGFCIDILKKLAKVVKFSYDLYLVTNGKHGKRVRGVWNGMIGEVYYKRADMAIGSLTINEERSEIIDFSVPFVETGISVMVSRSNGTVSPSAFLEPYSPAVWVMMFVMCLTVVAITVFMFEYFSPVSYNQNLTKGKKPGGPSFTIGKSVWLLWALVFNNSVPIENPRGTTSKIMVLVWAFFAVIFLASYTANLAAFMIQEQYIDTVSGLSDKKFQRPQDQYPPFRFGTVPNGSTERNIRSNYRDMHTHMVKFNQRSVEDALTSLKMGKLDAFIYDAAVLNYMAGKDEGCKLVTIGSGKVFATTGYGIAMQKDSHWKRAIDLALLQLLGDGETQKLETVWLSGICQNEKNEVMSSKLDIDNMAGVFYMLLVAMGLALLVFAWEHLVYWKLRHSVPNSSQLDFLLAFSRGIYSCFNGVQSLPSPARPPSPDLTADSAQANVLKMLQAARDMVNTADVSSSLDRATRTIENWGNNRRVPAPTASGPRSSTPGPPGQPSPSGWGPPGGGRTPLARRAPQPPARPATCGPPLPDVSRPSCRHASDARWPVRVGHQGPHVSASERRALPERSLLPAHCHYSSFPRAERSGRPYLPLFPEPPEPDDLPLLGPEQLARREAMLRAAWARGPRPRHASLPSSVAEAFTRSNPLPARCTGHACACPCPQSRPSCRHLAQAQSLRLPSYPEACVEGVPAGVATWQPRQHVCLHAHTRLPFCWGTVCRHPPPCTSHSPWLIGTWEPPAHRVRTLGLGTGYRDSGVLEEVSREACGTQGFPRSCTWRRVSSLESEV
Glutamate NMDA receptor; Grin1/Grin2a, sequence (Q00959 whole entry, looked up, other chains not shown): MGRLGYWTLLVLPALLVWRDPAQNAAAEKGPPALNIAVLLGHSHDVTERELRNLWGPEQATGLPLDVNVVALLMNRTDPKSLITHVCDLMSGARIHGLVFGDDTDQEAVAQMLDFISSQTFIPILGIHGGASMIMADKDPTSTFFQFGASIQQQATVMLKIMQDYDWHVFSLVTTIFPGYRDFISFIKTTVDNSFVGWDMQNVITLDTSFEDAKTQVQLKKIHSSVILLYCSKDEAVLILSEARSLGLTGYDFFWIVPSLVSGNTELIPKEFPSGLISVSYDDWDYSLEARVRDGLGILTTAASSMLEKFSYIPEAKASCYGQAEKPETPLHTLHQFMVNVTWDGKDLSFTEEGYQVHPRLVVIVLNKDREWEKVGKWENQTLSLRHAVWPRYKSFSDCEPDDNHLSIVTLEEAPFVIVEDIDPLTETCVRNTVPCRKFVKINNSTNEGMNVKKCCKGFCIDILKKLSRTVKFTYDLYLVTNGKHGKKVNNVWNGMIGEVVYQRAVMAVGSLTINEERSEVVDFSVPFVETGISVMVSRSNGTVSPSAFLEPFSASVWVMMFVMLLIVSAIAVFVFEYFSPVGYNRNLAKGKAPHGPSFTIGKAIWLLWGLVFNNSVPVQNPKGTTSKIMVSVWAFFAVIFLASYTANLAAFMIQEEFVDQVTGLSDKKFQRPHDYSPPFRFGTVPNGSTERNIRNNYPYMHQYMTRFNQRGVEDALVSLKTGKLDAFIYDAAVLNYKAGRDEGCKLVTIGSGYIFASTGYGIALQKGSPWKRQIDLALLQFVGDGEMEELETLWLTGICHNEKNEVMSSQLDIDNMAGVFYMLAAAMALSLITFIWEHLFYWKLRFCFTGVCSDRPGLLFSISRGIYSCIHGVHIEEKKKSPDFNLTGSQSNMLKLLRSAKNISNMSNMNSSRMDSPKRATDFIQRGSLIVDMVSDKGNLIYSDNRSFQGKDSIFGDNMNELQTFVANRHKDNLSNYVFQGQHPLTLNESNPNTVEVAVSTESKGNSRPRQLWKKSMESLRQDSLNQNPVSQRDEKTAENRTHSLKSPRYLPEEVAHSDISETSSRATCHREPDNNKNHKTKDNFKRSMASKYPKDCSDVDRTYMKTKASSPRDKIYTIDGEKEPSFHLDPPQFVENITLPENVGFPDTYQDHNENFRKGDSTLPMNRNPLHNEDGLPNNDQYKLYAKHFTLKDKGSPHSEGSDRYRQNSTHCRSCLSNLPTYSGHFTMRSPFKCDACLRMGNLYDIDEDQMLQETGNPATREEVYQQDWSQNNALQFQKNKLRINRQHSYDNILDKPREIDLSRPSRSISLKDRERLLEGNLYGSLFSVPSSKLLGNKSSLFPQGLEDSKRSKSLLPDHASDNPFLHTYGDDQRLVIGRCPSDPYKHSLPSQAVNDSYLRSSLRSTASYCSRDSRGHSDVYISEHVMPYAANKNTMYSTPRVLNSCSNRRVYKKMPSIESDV

SMILES	IC50 [1]	IC50 [2]	IC50 [3]	minimal effective dose (Rattus norvegicus)	IC50 [4]	IC50 [5]
C(#Cc1cnc[nH]1)CCN1CCC(c2ccccc2)CC1	0.81 µM	5 µM	1.4 µM	–	–	–
C(#Cc1cc[nH]c1)CCN1CCC(Cc2ccccc2)CC1	0.19 µM	> 100 µM	51 µM	30 mg/kg	–	–
OC1(Cc2ccccc2)CCN(CCC#Cc2c[nH]cn2)CC1	0.22 µM	> 100 µM	> 100 µM	> 10 mg/kg	–	–
C(#Cc1cc[nH]c1)CN1CCC(Cc2ccccc2)CC1	1.1 µM	56 µM	53 µM	–	–	–
OC1(c2ccccc2)CCN(CCC#Cc2c[nH]cn2)CC1	3.5 µM	36 µM	8.4 µM	–	–	–
C(#Cc1cn[nH]c1)CN1CCC(Cc2ccccc2)CC1	–	–	> 100 µM	–	0.82 µM	> 100 µM

Continued, in another order:

IC50 [1]	IC50 [2]	IC50 [3]	SMILES	minimal effective dose (Rattus norvegicus)	IC50 [4]	IC50 [5]
0.037 µM	70 µM	53 µM	C(#Cc1cnc[nH]1)CCN1CCC(Cc2ccccc2)CC1	3 mg/kg	–	–
0.12 µM	34 µM	38 µM	C(#Cc1cnc[nH]1)CN1CCC(Cc2ccccc2)CC1	10 mg/kg	–	–
0.05 µM	> 100 µM	40 µM	Fc1ccc(CC2CCN(CCC#Cc3c[nH]cn3)CC2)cc1	> 10 mg/kg	–	–
0.02 µM	38 µM	16 µM	Cc1ccc(CC2CCN(CCC#Cc3c[nH]cn3)CC2)cc1	10 mg/kg	–	–
0.028 µM	80 µM	26 µM	Clc1ccc(CC2CCN(CCC#Cc3cnc[nH]3)CC2)cc1	10 mg/kg	–	–
0.074 µM	> 100 µM	67 µM	C(#Cc1cn[nH]c1)CCN1CCC(Cc2ccccc2)CC1	30 mg/kg	–	–
